The target of one assay is T1, CDK9/CycT1 (Homo sapiens, UniProt P50750).
T1 construct: Recombinant full-length His-tagged human CDK9 and CycT1; His; purchased Invitrogen PV4131; host or cells: insect cells
The experiment in a line: CDK9/CycT1 kinase assay (TR-FRET). To be noted: Method 1, 10 μM ATP. The class given is biochemical. The procedure, abridged:
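Full-length His-tagged human CDK9/CycT1 (insect-cell expressed), 15 min compound pre-incubation, then 25 min at 22 °C with 10 µM ATP (final) and 1 µM biotinylated peptide (final) in Tris pH 8.0/MgCl2 buffer. Phospho-substrate detected by TR-FRET (anti-RB pSer807/pSer811, Eu anti-mouse IgG, streptavidin-XL665); 665/622 nm emission ratio as read-out.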

Assay [1] deals with Caco-2 human colorectal carcinoma. The experiment in a line: Proliferation assay (crystal violet), Caco-2. To be noted: CACO-2 cells, read-out: Inhibition of CACO-2 cell proliferation. It counts as cell-based.
The subject of assay [2] is B16F10 mouse melanoma cells. Description: Proliferation assay (crystal violet), B16F10. To be noted: B16-F10, read-out: Inhibition of B16F10 cell proliferation. The class given is cell-based. As to the method:
Cultivated tumour cells (NCI-H460, human non-small cell lung carcinoma cells, ATCC HTB-177; DU 145, hormone-independent human prostate carcinoma cells, ATCC HTB-81; HeLa-MaTu, human cervical carcinoma cells, EPO-GmbH, Berlin; HeLa-MaTu-ADR, multidrug-resistant human cervical carcinoma cells, EPO-GmbH, Berlin; HeLa human cervical tumour cells, ATCC CCL-2; Caco-2 human colorectal carcinoma, ATCC HTB-37; B16F10 mouse melanoma cells, ATCC CRL-6475) were plated at a density of 5000 cells/well (DU145, HeLa-MaTu-ADR), 3000 cells/well (NCI-H460, HeLa-MaTu, HeLa), 1500 cells/well (Caco-2), or 1000 cells/well (B16F10) in a 96-well multititer plate in 200 μL of their respective growth medium supplemented 10% fetal calf serum. After 24 hours, the cells of one plate (zero-point plate) were stained with crystal violet (see below), while the medium of the other plates was replaced by fresh culture medium (200 μl), to which the test substances were added in various concentrations (0 μM, as well as in the range of 0.001-10 μM; the final concentration of the solvent dimethyl sulfoxide was 0.5%). The cells were incubated for 4 days in the presence of test substances. Cell proliferation was determined by staining the cells with crystal violet: the cells were fixed by adding 20 μl/measuring point of an 11% glutaric aldehyde solution for 15 minutes at room temperature. After three washing cycles of the fixed cells with water, the plates were dried at room temperature. The cells were stained by adding 100 μl/measuring point of a 0.1% crystal violet solution (pH 3.0). After three washing cycles of the stained cells with water, the plates were dried at room temperature. The dye was dissolved by adding 100 μl/measuring point of a 10% acetic acid solution. The extinction was determined by photometry at a wavelength of 595 nm. The change of cell number, in percent, was calculated by normalization of the measured values to the extinction values of the zero-point plate (=0%) and the extinction of the untreated (0 μm) cells (=100%). The IC50 values were determined by means of a 4 parameter fit.

T1 sequence (P50750 whole entry): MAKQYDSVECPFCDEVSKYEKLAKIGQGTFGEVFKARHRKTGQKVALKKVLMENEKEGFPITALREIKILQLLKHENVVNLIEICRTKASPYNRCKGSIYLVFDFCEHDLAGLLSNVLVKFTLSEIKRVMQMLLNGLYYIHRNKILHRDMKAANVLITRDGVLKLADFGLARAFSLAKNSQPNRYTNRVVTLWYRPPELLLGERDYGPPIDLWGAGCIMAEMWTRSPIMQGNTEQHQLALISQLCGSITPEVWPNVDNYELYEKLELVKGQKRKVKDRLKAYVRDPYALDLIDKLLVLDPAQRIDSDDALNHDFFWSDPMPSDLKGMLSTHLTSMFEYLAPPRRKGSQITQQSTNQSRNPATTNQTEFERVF
T1 sequence (O60563 whole entry partner): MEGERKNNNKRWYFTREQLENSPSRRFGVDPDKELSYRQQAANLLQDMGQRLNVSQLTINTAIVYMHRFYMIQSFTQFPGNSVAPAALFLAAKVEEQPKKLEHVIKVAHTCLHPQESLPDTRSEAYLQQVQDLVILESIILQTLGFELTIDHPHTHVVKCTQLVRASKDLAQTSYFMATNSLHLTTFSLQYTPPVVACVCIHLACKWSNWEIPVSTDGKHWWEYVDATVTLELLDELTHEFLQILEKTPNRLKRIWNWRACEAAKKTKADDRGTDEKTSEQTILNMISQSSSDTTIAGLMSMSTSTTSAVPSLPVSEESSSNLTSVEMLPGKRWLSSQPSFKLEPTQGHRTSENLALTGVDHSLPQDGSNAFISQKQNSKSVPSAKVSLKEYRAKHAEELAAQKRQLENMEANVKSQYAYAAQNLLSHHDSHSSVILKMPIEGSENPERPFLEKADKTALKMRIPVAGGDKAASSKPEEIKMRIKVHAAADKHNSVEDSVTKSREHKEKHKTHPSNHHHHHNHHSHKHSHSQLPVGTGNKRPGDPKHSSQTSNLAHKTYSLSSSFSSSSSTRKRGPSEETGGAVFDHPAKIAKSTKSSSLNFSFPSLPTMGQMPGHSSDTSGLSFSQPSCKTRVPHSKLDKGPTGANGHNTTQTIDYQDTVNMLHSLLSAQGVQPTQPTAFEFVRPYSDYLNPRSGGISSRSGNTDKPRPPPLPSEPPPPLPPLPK

For `Cc1cc(COc2cc(F)ccc2-c2ncnc(Nc3cccc(CS(C)(=O)=O)c3)n2)ccn1` [Example 87, 4-{4-Fluoro-2-[(2-methylpyridin-4-yl)methoxy]-phenyl}-N-{3-[(methylsulfonyl)methyl]phenyl}-1,3,5-triazin-2-amine], the IC50 on CDK9/CycT1 was determined as 6 nM; in assay [1], 730 nM; in assay [2], 370 nM.

(Values after patent US8916557B2, “Substituted 4-Aryl-N-phenyl-1,3,5-triazin-2-amines” (Bayer Intellectual Property GmbH, priority 2011, dated 2014).)
